According to patent US8269043B2, “Bicyclic aryl sphingosine 1-phosphate analogs” (Biogen Idec MA Inc., priority 2008, dated 2012):

The compounds below were run on circulating lymphocytes (assay: Lymphopenia assay: circulating lymphocytes after oral gavage). Conditions: C57bl/6 male mice, oral gavage 0.5 and 5 mg/kg in 30% HPCD, blood 5 and 24 hours after administration.
Type: in vivo
Method: Measurement of circulating lymphocytes: Compounds were dissolved in 30% HPCD. Mice (C57bl/6 male, 6-10 week-old) were administered 0.5 and 5 mg/kg of a compound via oral gavage. 30% HPCD was included as a negative control.
Blood was collected from the retro-orbital sinus 5 and 24 hours after drug administration under short isoflurane anesthesia. Whole blood samples were subjected to hematology analysis. Peripheral lymphocyte counts were determined using an automated analyzer (HEMAVET™ 3700). Three mice were used to assess the lymphocyte depletion activity of each compound screened.
Compounds of formula (I) induced full lymphopenia at times as short as 3 hours or less to as long as 48 hours or more; for example, 4 to 36 hours, or 5 to 24 hours. In some cases, a compound of formula induced full lymphopenia at 5 hours and partial lymphopenia at 24 hours. The dosage required to induce lymphopenia can be in the range of, e.g., 0.001 mg/kg to 100 mg/kg; or 0.01 mg/kg to 10 mg/kg. The dosage can be 10 mg/kg or less, such as 5 mg/kg or less, 1 mg/kg or less, or 0.1 mg/kg or less

Q: With `CC(C)(C)[C@H]1CC[C@@H](Oc2ccc3cc([C@](C)(N)CO)ccc3c2C(F)(F)F)CC1` (relative stereo) [Example 128, (S)-2-amino-2-[6-(4-cis-tert-butyl-cyclohexyloxy)-5-trifluoromethyl-naphthalen-2-yl]-propan-1-ol] as the compound, how does the “Lymphopenia (ED50 mg/kg)” value read?
A: 0.5 to 5 mg/kg

Same assay, conditions: Mus musculus, Lymphocyte, po, C57bl/6 male mice, oral gavage 0.5 and 5 mg/kg in 30% HPCD, blood 5 and 24 hours after administration

Q: With `CC(CO)c1ccc2c(C(F)(F)F)c(O[C@H]3CC[C@H](C(C)(C)C)CC3)ccc2c1` (relative stereo) [Example 275, 2-[6-(trans-4-tert-Butyl-cyclohexyloxy)-5-trifluoromethyl-naphthalen-2-yl]-propan-1-ol] as the compound, how does the ED50 read?
A: > 5 mg/kg

Q: `C[C@](N)(CO)c1ccc2cc(O[C@H]3CC[C@@H](c4ccccc4)CC3)ccc2c1` [Example 30, (R)-2-amino-2-(6-(cis-4-phenylcyclohexyloxy)naphthalen-2-yl)propan-1-ol] was tested. Which ED50 did it give?
A: 0.5 to 5 mg/kg

Q: How did the ED50 turn out when `CC(C)(C)[C@H]1CC[C@H](Oc2c(Cl)c(Cl)c3cc([C@@](C)(N)CO)ccc3c2Cl)CC1` [Example 240, (R)-2-amino-2-(6-(trans-4-tert-butylcyclohexyloxy)-5,7,8-trichloronaphthalen-2-yl)propan-1-ol] was run?
A: > 5 mg/kg

Q: `CC(C)(C)[C@H]1CC[C@H](Oc2ccc3cc([C@@](C)(N)CO)ccc3c2F)CC1` [Example 242, (R)-2-amino-2-(6-(trans-4-tert-butylcyclohexyloxy)-5-fluoronaphthalen-2-yl)propan-1-ol] was tested. Which ED50 did it give?
A: < 0.5 mg/kg

Q: With `CC(C)(C)[C@H]1CC[C@H](Oc2ccc3cc([C@@](C)(N)CO)ccc3c2-c2ccc(S(C)(=O)=O)cc2)CC1` [Example 223, (R)-2-amino-2-(6-(trans-4-tert-butylcyclohexyloxy)-5-(4-(methylsulfonyl)phenyl)naphthalen-2-yl)propan-1-ol] as the compound, how does the ED50 read?
A: > 5 mg/kg

Q: Which ED50 does the source give for `C[C@](N)(CO)c1ccc2c(C(F)(F)F)c(O[C@H]3CC[C@H](C4CCCCC4)CC3)ccc2c1` [Example 163, (R)-2-Amino-2-(6-(trans-4-cyclohexylcyclohexyloxy)-5-(trifluoromethyl)naphthalen-2-yl)propan-1-ol] here?
A: < 0.5 mg/kg

Q: `CC(C)(C)[C@H]1CC[C@H](Oc2ccc3cc([C@@](C)(N)CO)ccc3c2-c2ccc(OC(F)(F)F)cc2)CC1` [Example 221, (R)-2-amino-2-(6-(trans-4-tert-butylcyclohexyloxy)-5-(4-(trifluoromethoxy)phenyl)naphthalen-2-yl)propan-1-ol] was tested. Which ED50 did it give?
A: > 5 mg/kg

Q: Which ED50 does the source give for `C[C@](N)(CO)c1ccc2cc(Oc3ccc(F)c(F)c3)ccc2c1` [Example 183, (R)-2-Amino-2-(6-(3,4-difluorophenoxy)naphthalen-2-yl)propan-1-ol] here?
A: 0.5 to 5 mg/kg

Q: Which ED50 does the source give for `NC(CO)(CO)c1ccc2cc(Oc3cccc(OCCCC(F)(F)F)c3)ccc2c1` [Example 200, 2-Amino-2-(6-(3-(4,4,4-trifluorobutoxy)phenoxy)naphthalen-2-yl)propane-1,3-diol] here?
A: < 0.5 mg/kg

Q: How did the ED50 turn out when `CCCC(F)(F)[C@H]1CC[C@@H](Oc2ccc3cc([C@@](C)(N)CO)ccc3c2)CC1` [Example 331, (R)-2-amino-2-(6-(cis-4-(1,1-difluorobutyl)cyclohexyloxy)naphthalen-2-yl)propan-1-ol] was run?
A: > 5 mg/kg

Q: For `C[C@](N)(CO)c1ccc2cc(OC3CCC4CCCCC4C3)ccc2c1` (stereo partly drawn) [Example 87, (R)-2-Amino-2-[6-(decahydro-naphthalen-2-yloxy)-naphthalen-2-yl]-propan-1-ol], which ED50 is on record?
A: 0.5 to 5 mg/kg

Q: `Cc1c(O[C@H]2CC[C@H](C(C)(C)C)CC2)ccc2cc([C@@](C)(N)CO)ccc12` [Example 217, (R)-2-amino-2-(6-(trans-4-tert-butylcyclohexyloxy)-5-methylnaphthalen-2-yl)propan-1-ol] was tested. Which ED50 did it give?
A: < 0.5 mg/kg

Q: With `CC(F)(F)[C@H]1CC[C@H](Oc2ccc3cc([C@@](C)(N)CO)ccc3c2C(F)(F)F)CC1` [Example 334, (R)-2-amino-2-(6-(trans-4-(1,1-difluoroethyl)cyclohexyloxy)-5-(trifluoromethyl)naphthalen-2-yl)propan-1-ol] as the compound, how does the ED50 read?
A: < 0.5 mg/kg

Q: `C[C@](N)(CO)c1ccc2cc(Oc3cccc(OC(F)(F)F)c3)ccc2c1` [Example 175, (R)-2-Amino-2-(6-(3-(trifluoromethoxy)phenoxy)naphthalen-2-yl)propan-1-ol] was tested. Which ED50 did it give?
A: 0.5 to 5 mg/kg
